Experimental data taken from article PMC6356585 (Viruses, 2018).
Counter-ions that a name gives are not always drawn. Like-named read-outs stand apart in the source and are kept apart here.

Assays:
human rotavirus = system: human rotavirus; set-up: method as in ref 39 = [39]; details: cited from earlier work
ZIKV SPH [1] = assay: Autophagy compound library screen, ZIKV SPH titer (TCID50) in C6/36 cells; assay type: cell-based, Zika virus; details: for activity at 10 µM: Zika virus, read-out: ZIKV SPH Relative Titer in C6/36 Cells
human rhinovirus = system: human rhinovirus; set-up: method as in ref 39 = [39]; details: cited from earlier work
human papillomavirus = system: human papillomavirus; set-up: method as in ref 39 = [39]; details: cited from earlier work
ZIKV IbH = assay: Autophagy compound screen in Vero cells infected with ZIKV IbH; assay type: cell-based, Zika virus; details: African-lineage ZIKV IbH, 10 µM
ZIKV SPH [2] = assay: Time-of-addition assay in Vero cells; assay type: cell-based, Zika virus; details: for ZIKV titer, time-of-addition / Decrease of ZIKV titers, time-of-addition / ZIKV replication, time-of-addition: Vero
[3] = system: autophagic vesicles in Vero cells; assay: Autophagy detection (CYTO-ID) in Vero cells; assay type: cell-based; details: 10 µM compound, 24 h, CYTO-ID green MFI vs DMSO control
ZIKV SPH [4] = assay: ZIKV SPH titer in compound-treated human neurons; assay type: cell-based, Zika virus; details: 10 µM, ZIKV SPH MOI 1.0, 4 days, TCID50
ZIKV SPH [5] = assay: 7-Ketocholesterol and ZIKV pre-incubation (virucidal effect); assay type: cell-based, Zika virus; details: 200 µM 7-KC, 1 h, room temperature, then diluted to approx. 0.2 µM on Vero cells, MOI 0.1, 40 hpi
ZIKV SPH [6] = assay: qRT-PCR of ZIKV genomes in cells and supernatants; assay type: cell-based, Zika virus
C6/36 cells = assay type: cell-based, Ae. albopictus
ZIKV SPH [7] = assay: 7-Ketocholesterol dose-response, ZIKV SPH titer in Vero cells; assay type: cell-based; details: Zika virus, MOI 1, 24 h, 0–27 µM, TCID50, R^2 = 0.9078
ZIKV [8] = system: ZIKV; set-up: method as in ref 43 = [43]; details: by inhibiting viral entry; cited from earlier work
ZIKV [9] = system: ZIKV; set-up: method as in ref 43 = [43]; details: by inhibiting viral entry; cited from earlier work; remark: listed apart in the source
Vero cells = assay: Cell viability (CellTiter-Glo) of Vero cells; assay type: cell-based
ZIKV SPH [10] = assay: Autophagy compound library screen, ZIKV SPH titer (TCID50) in Vero cells; assay type: cell-based, Zika virus; details: for ZIKV SPH Relative Titer in Vero Cells: 10 µM compound, MOI 0.1, 40 h, TCID50, ± SEM, three independent trials
ZIKV [11] = system: ZIKV; set-up: method as in ref 12 = [12]; details: cited from earlier work
[12] = C6/36, 10 µM compound, MOI 0.1, 96 h, TCID50, ± SEM, three independent trials
[13] = 10 µM compound, 96 h, CellTiter-Glo, ± SEM, three independent trials
[14] = 10 µM compound, MOI 0.1, 96 h, TCID50, ± SEM, three independent trials
[15] = 10 µM compound, 40 h, CellTiter-Glo, ± SEM, three independent trials

## CC(C)CCC[C@@H](C)[C@H]1CC[C@H]2[C@@H]3C(=O)C=C4C[C@@H](O)CC[C@]4(C)[C@H]3CC[C@]12C [7-Ketocholesterol]
Human rotavirus
  Activity against human rotavirus: no activity
ZIKV SPH [1]; [12]
  activity at 10 µM: 9.8 ± 3.3%
Human rhinovirus
  Activity against human rhinovirus: minor activity
Human papillomavirus
  Activity against human papillomavirus: no activity
ZIKV IbH
  Reduction of ZIKV IbH: more than 90 % of control
  ZIKV IbH titer in Vero cells compared to control: reduced ZIKV IbH titers
ZIKV IbH; listed as 7-KC
  ZIKV IbH titer in Vero cells compared to control: dropped titers more than a log
ZIKV SPH [2]; 10 µM 7-KC added 12 h after infection, 24 hpi
  ZIKV titer, time-of-addition: ZIKV inhibition continued
ZIKV SPH [2]; 10 µM 7-KC added 18 h after infection, 24 hpi
  ZIKV titer, time-of-addition: slight decrease in titer
ZIKV SPH [2]; 10 µM 7-KC added at 2 hpi, MOI 0.1, 24 hpi
  Decrease of ZIKV titers, time-of-addition: 90%
ZIKV SPH [2]; 10 µM 7-KC added at 6 hpi, MOI 0.1, 24 hpi
  Decrease of ZIKV titers, time-of-addition: 90%
ZIKV SPH [2]; 10 µM 7-KC added at the time of infection, MOI 0.1, 24 hpi
  Decrease of ZIKV titers, time-of-addition: 90%
ZIKV SPH [2]; 10 µM 7-KC, pre-treating cells 2 h before infection, MOI 0.1, 24 hpi
  ZIKV titer, time-of-addition: did not reduce viral titers
ZIKV SPH [2]; Vero cells, 10 µM 7-KC, 24 hpi
  Decrease in infectious virions: greater than 90%
[3]
  Autophagy Activity Factor (AAF): 27.01
ZIKV SPH [4]
  ZIKV titer in human neurons: reduced ZIKV titer
ZIKV SPH [5]
  ZIKV titer after preincubation of virus stock with compound (virucidal effect): did not reduce viral titers
ZIKV SPH [6]; Vero cells, 10 µM 7-KC, 24 hpi
  Budding/release efficiency (genomes in supernatant vs cell associated genomes): approximately 30 % of untreated cells
  Number of viral genome copies in the supernatant: reduced
ZIKV SPH [6]; Vero cells, 10 µM 7-KC, total cellular RNA at 24 hpi
  Levels of ZIKV RNA in infected cells: not significantly altered
ZIKV SPH [6]; infectious titer vs genome copies in supernatant, Vero, 7-KC present, control 1 in 1200
  Specific infectivity: 1 in N genomes infectious: ~9000 genomes
C6/36 cells; [13]
  C6/36 Viability: 36 ± 5.1% of untreated control
ZIKV SPH [7]
  IC50: 4.06 µM

## C[C@H](CCCC(C)(C)O)[C@H]1CC[C@H]2[C@@H]3CC=C4C[C@@H](O)CC[C@]4(C)[C@H]3CC[C@]12C [25-hydroxycholesterol]
ZIKV [8]
  ZIKV titers in vivo: reduced ZIKV titers
ZIKV [9]
  ZIKV titers in vitro: reduced ZIKV titers

## CCCCc1oc2ccccc2c1C(=O)c1cc(I)c(OCCN(CC)CC)c(I)c1 [Amiodarone HCl]
ZIKV SPH [1]; [12]
  activity at 10 µM: 2 ± 0.5%
ZIKV IbH
  ZIKV IbH titer in Vero cells compared to control: reduced ZIKV IbH titers
[3]
  Autophagy Activity Factor (AAF): 60.40

## Cl.N [Ammonium chloride]
ZIKV SPH [2]; 30 mM ammonium chloride added later in infection, 24 hpi
  ZIKV replication, time-of-addition: less inhibitory
ZIKV SPH [2]; 30 mM ammonium chloride, 2 h prior to infection and at the time of infection, 24 hpi
  ZIKV replication, time-of-addition: inhibited ZIKV replication

## CCN(CCO)CCCC(C)Nc1ccnc2cc(Cl)ccc12 (stereo not drawn) [Hydroxychloroquine]
ZIKV SPH [1]; [14]
  ZIKV SPH Relative Titer in C6/36 Cells: decreased titers
ZIKV SPH [1]; [12]
  activity at 10 µM: 25.1 ± 12.6%
Vero cells; 10 µM
  Vero Viability: 85.3 ± 8.4% of untreated control
ZIKV SPH [10]
  ZIKV SPH Relative Titer in Vero Cells: decreased titers
C6/36 cells; 10 µM
  C6/36 Viability: 35 ± 9.7% of untreated control
ZIKV [11]
  ZIKV spread in a mouse model: blocked ZIKV spread

## C=CC(C)(C)c1cc(/C=C/C(=O)c2ccc(O)cc2)c(OC)cc1O [Licochalcone A]
ZIKV SPH [1]; [14]
  ZIKV SPH Relative Titer in C6/36 Cells: 51.8 ± 28.5% of untreated control
ZIKV IbH
  ZIKV IbH titer in Vero cells compared to control: reduced ZIKV IbH titers
[3]
  Autophagy Activity Factor (AAF): 12.33
Vero cells; 10 µM compound, 40 h, CellTiter-Glo, ± SEM, three independent trials, 10 µM
  Vero Viability: 100.7 ± 9.4% of untreated control
Vero cells; 10 µM compound, 40 h, CellTiter-Glo, ± SEM, three independent trials, listed as licochalcone A, 10 µM
  Vero Viability: above 80% of untreated control
ZIKV SPH [10]
  ZIKV SPH Relative Titer in Vero Cells: 7.2 ± 2.9% of untreated control
ZIKV SPH [10]; listed as licochalcone A
  ZIKV SPH Relative Titer in Vero Cells: below 10% of untreated control
C6/36 cells; [13]
  C6/36 Viability: 43 ± 2% of untreated control

## CO[C@H]1C[C@@H]2CC[C@@H](C)[C@@](O)(O2)C(=O)C(=O)N2CCCC[C@H]2C(=O)O[C@H]([C@H](C)C[C@@H]2CC[C@@H](O)[C@H](OC)C2)CC(=O)[C@H](C)/C=C(\C)[C@@H](O)[C@@H](OC)C(=O)[C@H](C)C[C@H](C)/C=C/C=C/C=C/1C [Rapamycin]
ZIKV SPH [1]; [14]
  ZIKV SPH Relative Titer in C6/36 Cells: slightly decreased production
ZIKV SPH [1]; 10 µM compound, MOI 0.1, 96 h, TCID50, ± SEM, three independent trials, listed as rapamycin
  ZIKV SPH Relative Titer in C6/36 Cells: slightly decreased titers
ZIKV SPH [1]; [12]
  activity at 10 µM: 75.7 ± 47.7%
[3]
  Autophagy Activity Factor (AAF): 7.74
Vero cells; 10 µM
  Vero Viability: 66.0 ± 2.6% of untreated control
ZIKV SPH [10]
  ZIKV SPH Relative Titer in Vero Cells: increased ZIKV titers
C6/36 cells; 10 µM
  C6/36 Viability: 59 ± 7.3% of untreated control

## O=C(CC(=O)C(F)(F)F)c1cccs1 [TTFA]
ZIKV SPH [1]; [14]
  ZIKV SPH Relative Titer in C6/36 Cells: 72.8 ± 9.6% of untreated control
Vero cells; [15]
  Vero Viability: 90.0 ± 3.5% of untreated control
ZIKV SPH [10]
  ZIKV SPH Relative Titer in Vero Cells: 24.4 ± 7.6% of untreated control
C6/36 cells; [13]
  C6/36 Viability: 78 ± 19.9% of untreated control

## OC[C@H]1O[C@H](O[C@H]2O[C@H](CO)[C@@H](O)[C@H](O)[C@H]2O)[C@H](O)[C@@H](O)[C@@H]1O [Trehalose]
ZIKV SPH [1]; [14]
  ZIKV SPH Relative Titer in C6/36 Cells: not able to reduce ZIKV titers
ZIKV SPH [1]; [12]
  activity at 10 µM: 246 ± 101%
Vero cells; 10 µM
  Vero Viability: 97.7 ± 1.5% of untreated control
ZIKV SPH [10]
  ZIKV SPH Relative Titer in Vero Cells: not able to reduce ZIKV titers
C6/36 cells; 10 µM
  C6/36 Viability: 99 ± 2.9% of untreated control

## CN1CCN(CCCN2c3ccccc3Sc3ccc(C(F)(F)F)cc32)CC1.Cl.Cl [Trifluoperazine·2HCl]
ZIKV SPH [1]; [14]
  ZIKV SPH Relative Titer in C6/36 Cells: 0.3 ± 0.3% of untreated control
Vero cells; 10 µM
  Vero Viability: 51.0 ± 22.1% of untreated control
ZIKV SPH [10]
  ZIKV SPH Relative Titer in Vero Cells: 2.8 ± 0.7% of untreated control
C6/36 cells; [13]
  C6/36 Viability: 10 ± 3.8% of untreated control

## COC[C@H]1OC(=O)c2coc3c2[C@@]1(C)C1=C(C3=O)[C@@H]2CCC(=O)[C@@]2(C)C[C@H]1OC(C)=O [Wortmannin]
ZIKV SPH [1]; C6/36, 96 h
  activity at 10 µM: 190 ± 57.8%
Vero cells; [15]
  Vero Viability: 79.0 ± 3.1% of untreated control
ZIKV SPH [10]; Zika virus, Vero, 40 h, read-out: ZIKV SPH Relative Titer in Vero Cells
  activity at 10 µM: 46.9 ± 9%
C6/36 cells; 10 µM
  C6/36 Viability: 105 ± 5.5% of untreated control

## Tunicamycin
ZIKV SPH [1]; [14]
  ZIKV SPH Relative Titer in C6/36 Cells: 1.8 ± 0.8% of untreated control
Vero cells; [15]
  Vero Viability: 56.3 ± 8.7% of untreated control
ZIKV SPH [10]
  ZIKV SPH Relative Titer in Vero Cells: 0.5 ± 0.5% of untreated control
C6/36 cells; [13]
  C6/36 Viability: 47 ± 7.6% of untreated control
